Reference: ChEMBL document CHEMBL3994659, “Synthesis and antimicrobial evaluation of cationic low molecular weight amphipathic 1,2,3-triazoles” (Bioorg Med Chem Lett, 2017)
Calls of active or inactive are those of the source. The rule behind the calls is not given here.

Tests used:
MRC5 = experiment: Cytotoxicity against human MRC5 cells at <50 ug/ml; type: cell-based
Streptococcus agalactiae = experiment: Antibacterial activity against Streptococcus agalactiae group B ATCC 12386 after overnight incubation by photometric method; type: functional
Pseudomonas aeruginosa [1] = experiment: microbe, parasite or virus in culture; settings: ATCC 27853
Description: Antibacterial activity against Pseudomonas aeruginosa ATCC 27853 after overnight incubation by photometric method

Enterococcus faecalis [2] = experiment: Antibacterial activity against Enterococcus faecalis ATCC 29212 after overnight incubation by photometric method; type: functional
Staphylococcus aureus = experiment: Antibacterial activity against Staphylococcus aureus ATCC 25923 after overnight incubation by photometric method; type: functional
Escherichia coli [3] = experiment: microbe, parasite or virus in culture; settings: ATCC 25922
Description: Antibacterial activity against Escherichia coli ATCC 25922 after overnight incubation by photometric method

[4] = test system: Staphylococcus epidermidis; experiment: Inhibition of biofilm formation in Staphylococcus epidermidis at 50 ug/ml after overnight incubation by crystal violet staining based method; type: functional
Pseudomonas aeruginosa [5] = experiment: Antibacterial activity against Pseudomonas aeruginosa ATCC 27853 at 50 ug/ml after overnight incubation by photometric method; type: functional
Enterococcus faecalis [6] = experiment: Antibacterial activity against Enterococcus faecalis ATCC 29212 at 50 ug/ml after overnight incubation by photometric method; type: functional
Escherichia coli [7] = experiment: Antibacterial activity against Escherichia coli ATCC 25922 at 50 ug/ml after overnight incubation by photometric method; type: functional

Question: For `Cl.NCCc1cn(Cc2cc(C(F)(F)F)cc(C(F)(F)F)c2)nn1`, which Activity (MRC5) is on record?
Answer: Non-Toxic

Question: Which Activity (MRC5) does the source give for `CN(C)CCc1cn(Cc2ccc3ccccc3c2)nn1.Cl` here?
Answer: Non-Toxic

Question: Which Activity (MRC5) does the source give for `CN(C)CCc1cn(Cc2cc(C(F)(F)F)cc(C(F)(F)F)c2)nn1.Cl` here?
Answer: Non-Toxic

Question: How did the MIC (Streptococcus agalactiae) turn out when `CCCCCCCOc1ccc(-n2cc(CCCN)nn2)cc1.Cl` was run?
Answer: 8 µg/mL

Question: What about the MIC (Pseudomonas aeruginosa [1]) of the same compound?
Answer: 16 µg/mL

Question: And the MIC (Enterococcus faecalis [2])?
Answer: 16 µg/mL

Question: What about the MIC (Staphylococcus aureus) of the same compound?
Answer: 16 µg/mL

Question: What about the MIC (Escherichia coli [3]) of the same compound?
Answer: 8 µg/mL

Question: With `CN(C)CCCc1cn(Cc2ccc3ccccc3c2)nn1.Cl` as the compound, how does the Activity (MRC5) read?
Answer: Non-Toxic

Question: What does the source list for `CN(C)CCc1cn(Cc2cc(C(C)(C)C)cc(C(C)(C)C)c2)nn1.Cl`?
Answer: biofilm formation inhibition (active/not active) [4]: Active; Activity (MRC5): Non-Toxic

Question: With `Cl.N=C(N)NCCc1cn(Cc2ccccc2)nn1` as the compound, how does the Activity (MRC5) read?
Answer: Non-Toxic

Question: For `Cl.NCCc1cn(Cc2ccccc2)nn1`, which Activity (MRC5) is on record?
Answer: Non-Toxic

Question: For `Cl.N=C(N)NCCc1cn(Cc2ccc3ccccc3c2)nn1`, which Activity (MRC5) is on record?
Answer: Non-Toxic

Question: With `Cl.NCCc1cn(Cc2ccc3ccccc3c2)nn1` as the compound, how does the Activity (MRC5) read?
Answer: Non-Toxic

Question: With `Cl.N=C(N)NCCCc1cn(Cc2ccc3ccccc3c2)nn1` as the compound, how does the “biofilm formation inhibition (active/not active)” value [4] read?
Answer: Active

Question: What about the Activity (MRC5) of the same compound?
Answer: Non-Toxic

Question: `Cl.N=C(N)NCCCc1cn(Cc2cc(C(F)(F)F)cc(C(F)(F)F)c2)nn1` was tested. Which Activity (MRC5) did it give?
Answer: Non-Toxic

Question: What does the source list for `CC(C)(C)c1cc(-n2cc(CCCNC(=N)N)nn2)cc(C(C)(C)C)c1.Cl`?
Answer: MIC (Streptococcus agalactiae): 4 µg/mL; MIC (Pseudomonas aeruginosa [1]): 16 µg/mL; MIC (Enterococcus faecalis [2]): 16 µg/mL; MIC (Staphylococcus aureus): 4 µg/mL; MIC (Escherichia coli [3]): 16 µg/mL

Question: Which results are given for `CC(C)(C)c1cc(Cn2cc(CCCNC(=N)N)nn2)cc(C(C)(C)C)c1.Cl`?
Answer: MIC (Streptococcus agalactiae): 10 µg/mL; MIC (Pseudomonas aeruginosa [1]): 40 µg/mL; biofilm formation inhibition (active/not active) [4]: Active; MIC (Enterococcus faecalis [2]): 40 µg/mL; MIC (Staphylococcus aureus): 10 µg/mL; MIC (Escherichia coli [3]): 40 µg/mL; Activity (MRC5): Non-Toxic

Question: With GENTAMICIN as the compound, how does the MIC (Streptococcus agalactiae) read?
Answer: 4 µg/mL

Question: And the MIC (Enterococcus faecalis [2])?
Answer: 10 µg/mL

Question: And the MIC (Staphylococcus aureus)?
Answer: 0.13 µg/mL

Question: With `CN(C)CCCc1cn(Cc2cc(C(F)(F)F)cc(C(F)(F)F)c2)nn1.Cl` as the compound, how does the Activity (MRC5) read?
Answer: Non-Toxic

Question: What does the source list for `CC(C)(C)c1cc(Cn2cc(CCNC(=N)N)nn2)cc(C(C)(C)C)c1.Cl`?
Answer: MIC (Streptococcus agalactiae): 10 µg/mL; MIC (Pseudomonas aeruginosa [1]): 40 µg/mL; biofilm formation inhibition (active/not active) [4]: Active; MIC (Enterococcus faecalis [2]): 40 µg/mL; MIC (Staphylococcus aureus): 20 µg/mL; MIC (Escherichia coli [3]): 50 µg/mL; Activity (MRC5): Non-Toxic

Question: For `Cl.N=C(N)NCCCc1cn(Cc2ccccc2)nn1`, which Activity (MRC5) is on record?
Answer: Non-Toxic

Question: What does the source list for `CN(C)CCCc1cn(Cc2cc(C(C)(C)C)cc(C(C)(C)C)c2)nn1.Cl`?
Answer: Activity (Pseudomonas aeruginosa [5]): inactive; MIC (Streptococcus agalactiae): 50 µg/mL; biofilm formation inhibition (active/not active) [4]: Active; MIC (Staphylococcus aureus): 40 µg/mL; Activity (Enterococcus faecalis [6]): inactive; Activity (MRC5): Non-Toxic; Activity (Escherichia coli [7]): inactive

Question: For `CN(C)CCCc1cn(Cc2ccccc2)nn1.Cl`, which Activity (MRC5) is on record?
Answer: Non-Toxic

Question: What does the source list for `CC(C)(C)c1cc(-n2cc(CCCN)nn2)cc(C(C)(C)C)c1.Cl`?
Answer: MIC (Streptococcus agalactiae): 16 µg/mL; MIC (Pseudomonas aeruginosa [1]): 32 µg/mL; MIC (Enterococcus faecalis [2]): 32 µg/mL; MIC (Staphylococcus aureus): 16 µg/mL; MIC (Escherichia coli [3]): 16 µg/mL

Question: `Cl.NCCCc1cn(Cc2ccc3ccccc3c2)nn1` was tested. Which Activity (MRC5) did it give?
Answer: Non-Toxic

Question: How did the MIC (Streptococcus agalactiae) turn out when `CC(C)(C)c1cc(Cn2cc(CCN)nn2)cc(C(C)(C)C)c1.Cl` was run?
Answer: 40 µg/mL

Question: What about the MIC (Pseudomonas aeruginosa [1]) of the same compound?
Answer: 50 µg/mL

Question: What about the “biofilm formation inhibition (active/not active)” value [4] of the same compound?
Answer: Active

Question: What about the MIC (Staphylococcus aureus) of the same compound?
Answer: 40 µg/mL

Question: And the MIC (Escherichia coli [3])?
Answer: 40 µg/mL

Question: And the Activity (Enterococcus faecalis [6])?
Answer: inactive

Question: What about the Activity (MRC5) of the same compound?
Answer: Non-Toxic

Question: `Cl.N=C(N)NCCc1cn(Cc2cc(C(F)(F)F)cc(C(F)(F)F)c2)nn1` was tested. Which Activity (MRC5) did it give?
Answer: Non-Toxic

Question: How did the Activity (MRC5) turn out when `Cl.NCCCc1cn(Cc2cc(C(F)(F)F)cc(C(F)(F)F)c2)nn1` was run?
Answer: Non-Toxic

Question: `CCCCCCCOc1ccc(-n2cc(CCCNC(=N)N)nn2)cc1.Cl` was tested. Which MIC (Streptococcus agalactiae) did it give?
Answer: 4 µg/mL

Question: And the MIC (Pseudomonas aeruginosa [1])?
Answer: 8 µg/mL

Question: What about the MIC (Enterococcus faecalis [2]) of the same compound?
Answer: 8 µg/mL

Question: And the MIC (Staphylococcus aureus)?
Answer: 4 µg/mL

Question: And the MIC (Escherichia coli [3])?
Answer: 8 µg/mL

Question: `Cl.NCCCc1cn(Cc2ccccc2)nn1` was tested. Which Activity (MRC5) did it give?
Answer: Non-Toxic

Question: How did the Activity (MRC5) turn out when `CN(C)CCc1cn(Cc2ccccc2)nn1.Cl` was run?
Answer: Non-Toxic

Question: Which “biofilm formation inhibition (active/not active)” value [4] does the source give for `CC(C)(C)c1cc(Cn2cc(CCCN)nn2)cc(C(C)(C)C)c1.Cl` here?
Answer: inactive

Question: And the Activity (MRC5)?
Answer: Non-Toxic
